The text below walks through data of PubChem BioAssay AID720677 (Sanford-Burnham Center for Chemical Genomics, 2013).

As usually defined, the IC50 is the concentration that gives 50% inhibition.

Calls of active or inactive are those of the source.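 How the source made its calls: active means compounds whose IC50 is at or below a set limit; inactive means the rest.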 Some results are limits rather than exact numbers.

The target in the assay is Bcl-2-like protein 10 (Homo sapiens) (UniProt Q9HD36). Description: Bcl-B inhibitors displacing Bim peptide, SAR follow-up, biochemical, fluorescence polarization, set 2 (AID 720677). The following applies: GST-Bcl-B / FITC-Bim peptide fluorescence polarization displacement.
Chain of Bcl-2-like protein 10 (Homo sapiens) (Q9HD36 whole entry, looked up): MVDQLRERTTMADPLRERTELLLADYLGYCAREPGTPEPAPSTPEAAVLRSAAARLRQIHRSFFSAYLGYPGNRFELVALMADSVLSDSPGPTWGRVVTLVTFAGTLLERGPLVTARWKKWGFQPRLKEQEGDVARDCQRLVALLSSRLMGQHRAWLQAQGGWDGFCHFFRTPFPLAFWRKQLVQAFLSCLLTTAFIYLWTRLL
`COc1cccc(Cn2c(=O)c3c(n4nnnc24)-c2ccccc2CC32CCCC2)c1`: the IC50 was 0.985 µM.

As for `O=c1c2c(n3cnnc3n1Cc1ccc(F)cc1)-c1cc(F)ccc1CC21CCCC1`, the IC50 was > 20 µM (inactive). For `COc1ccccc1Cn1c(=O)c2c(n3nnnc13)-c1ccccc1CC21CCCC1`, the IC50 is > 20 µM (inactive).

Take `COc1ccc(Cn2c(=O)c3c(n4nnnc24)-c2cc(F)ccc2CC32CCCC2)cc1`: the IC50 was 1.01 µM. In the case of `COc1ccc(Cn2c(=O)c3c(n4nnnc24)-c2ccccc2CC32CCCC2)cc1` it was 0.795 µM; in that of `O=c1c2c(n3nnnc3n1Cc1ccccc1Cl)-c1ccccc1CC21CCCC1`, > 20 µM (inactive). The value for `COc1ccc(Cn2c(=O)c3c(n4cnnc24)-c2cc(F)ccc2CC32CCCC2)cc1` was 3.43 µM.
